Where only a bound is given, the exact number is not on record here.

CC50 and IC50 data for 20 molecules are collected here from patent publication US11040952B2, “Phthalazinone compound, method for preparation thereof, pharmaceutical composition thereof, and use thereof” (SHANGHAI INSTITUTE OF MATERIA MEDICA, CHINESE ACADEMY OF …, priority 2017, dated 2021).

System in one data set: not listed separately
Briefly: MTT assay for cytotoxicity. The format is cell-based, Human. The following applies: human, HepG2.2.15 cells, half (50%) lethal concentration. The protocol:
(§1) Human hepatoblastoma cell line HepG2.2.15 stably transfected with full-length HBV (provided by Shanghai Institute of Materia Medica, Chinese Academy of Sciences)
(§2) HepG2.2.15 cells were cultured and passaged according to conventional methods. DMEM containing 10% (v/v) bovine serum and the selective antibiotic G418 was used as a medium, the cells were cultured in an incubator at 37° C. under 5% CO2 for 8 days (the medium was exchanged on the 4th day).
(§3) The test compounds were formulated with DMSO into a 40 mM stock solution, which was then prepared into a solution at the defined highest concentration using a DMEM medium containing 10% Hyclone™ Fetal Bovine Serum, followed by diluting the same; the positive drug was lamivudine, which was also prepared into a solution at the defined concentration with the DMEM medium containing 10% Hyclone™ Fetal Bovine Serum.
HepG2.2.15 cells were seeded at 5×10^3 cells/well in a 96-well plate, and cultured for eight days in the presence of the compounds according to the above method, and then 200 μl of the supernatant was taken out, followed by addition of the MTT solution. After 4 hours of culture, a lysate was added. After 12 hours of culture, the OD570 was measured on a microplate reader. By comparing with the absorbance of the control well, the percentage of viable cells was calculated, and CC50, the concentration required for the reduction of cell viability by 50%, was calculated.
A general note: Tetrazolium dyes change colour on reduction, which living cells bring about.
Usually CC50 stands for the concentration giving 50% cytotoxicity. The low end stands for harm at low concentration, the high end for better tolerance by the cells. In the case of `O=c1c2ccccc2c(-c2ccc(NC3COC3)nc2F)nn1Cc1ccc(Cl)cc1` [Compound I-17], the 50% cytotoxic concentration (CC50) at 8 days is more than 100000 nM.
Still for that read-out and setting: under `CC(C)(C)Nc1ccc(-c2nn(Cc3ccc(Cl)cc3)c(=O)c3ccccc23)c(F)n1` [Compound I-14] stands 10300 nM; under `Cc1ccc2c(=O)n(Cc3ccc(Cl)cc3)nc(-c3ccc(C)nc3F)c2c1` [Compound V-3], more than 100000 nM; under `Cc1ccc(-c2nn(Cc3ccc(Cl)cc3)c(=O)c3ccc(F)cc23)c(F)n1` [Compound V-1], more than 100000 nM.
`COCc1ccc(-c2nn(Cc3ccc(C#N)cc3)c(=O)c3ccccc23)c(F)n1` [IV-22] yielded a half-maximal cytotoxic concentration (CC50) at 8 days of more than 100000 nM.
Still for that read-out and setting: to `N#Cc1ccc(Cn2nc(-c3cccnc3F)c3ccccc3c2=O)cc1` [IV-2] belongs more than 100000 nM; to `Cc1ncc(-c2nn(Cc3ccc(Cl)cc3)c(=O)c3ccccc23)cn1` [II-4], 97600 nM.
Same read-out and setting: under `Cc1ccc(-c2nn(Cc3ccc(Cl)cc3)c(=O)c3ccc(C(F)(F)F)cc23)c(F)n1` [Compound V-8] stands more than 100000 nM.
Same read-out and setting: to `N#Cc1ccc(Cn2nc(-c3ccc(CO)nc3F)c3ccccc3c2=O)cc1` [IV-20] belongs more than 100000 nM; to `CCOCCNc1ccc(-c2nn(Cc3ccc(C#N)cc3)c(=O)c3ccccc23)c(F)n1` [IV-41], more than 100000 nM.
For the molecule `CN(C)c1ccc(-c2nn(Cc3ccc(C#N)cc3)c(=O)c3ccccc23)c(F)n1` [IV-9], the CC50 at 8 days is more than 100000 nM.
In turn, `Cc1ccc(-c2nn(Cc3ccc(C#N)cc3)c(=O)c3cc(F)c(F)cc23)c(F)n1` [Compound V-10] had a CC50 at 8 days of 47900 nM.
The same measure, in the same setting: to `CC(C)(C)OC(=O)COCCNc1nc(F)c(-c2nn(Cc3ccc(C#N)cc3)c(=O)c3ccccc23)cc1Cl` [IV-59] belongs more than 100000 nM; to `CCOCCOCCNc1nc(F)c(-c2nn(Cc3ccc(C#N)cc3)c(=O)c3ccccc23)cc1Cl` [IV-57], not below 100000 nM; to `CC(C)(C)OC(=O)COCCNc1ccc(-c2nn(Cc3ccc(C#N)cc3)c(=O)c3ccccc23)c(F)n1` [IV-58], more than 100000 nM.
Consider `CN(C)CCNc1ccc(-c2nn(Cc3ccc(C#N)cc3)c(=O)c3ccccc23)c(F)n1` [IV-14], for which the 50% cytotoxic concentration (CC50) at 8 days was more than 100000 nM.
Molecule `[2H]C([2H])(NC)c1ccc(-c2nn(Cc3ccc(Cl)cc3)c(=O)c3ccccc23)c(F)n1` [Compound I-38] registered a CC50 at 8 days of 81000 nM.
As to `COCCCNc1ccc(-c2nn(Cc3ccc(C#N)cc3)c(=O)c3ccccc23)c(F)n1` [IV-32], the CC50 at 8 days turned out to be 43700 nM.
Same read-out and setting: to `CCOCCNc1nc(F)c(-c2nn(Cc3ccc(C#N)cc3)c(=O)c3ccccc23)cc1Cl` [IV-42] belongs 29800 nM.
Turning to `CN(C)CCNc1nc(F)c(-c2nn(Cc3ccc(C#N)cc3)c(=O)c3ccccc23)cc1Cl` [IV-38], half-maximal cytotoxicity (CC50 at 8 days) was put at 9760 nM.

The test system of a further data set is HBV. Put plainly: HBV DNA content in the supernatant of cell culture (real-time PCR). The data set is classed as cell-based, hepatitis B virus (HBV). The conditions noted are these: Hepatitis B virus, HepG2.2.15, 192 h, inhibition of HBV DNA replication, HepG2.2.15 supernatant, 8 days. The protocol:
as §1, §2, §3
HepG2.2.15 cells were treated with compounds at different concentrations for 8 days (the medium was exchanged on the 4th day), and the supernatant was aspirated, and the HBV DNA contained in the mature virus particles in the supernatant was quantitated by using a real-time PCR method.
1) The supernatant DNA from a 96-well plate, 200 μl/well, was collected, wherein the contents in the duplicate wells were collected into a same EP tube, and centrifuged at 4000 rcf for 5 min, and the supernatant was collected;
2) 200 μl of the supernatant was added into a 1.5 ml EP tube, added with 20 μl of proteinase K and 200 μl of Buffer AL (Qiagen, DNeasy® Blood & Tissue Kit), vortexed to be mixed thoroughly, and incubated at 56° C. for 10 min;
3) 200 μl of ethanol was added and vortexed to be mixed thoroughly;
4) all the liquid obtained from step 3) was added into a DNeasy Mini spin column (Qiagen, DNeasy® Blood & Tissue Kit) placed in a 2 ml waste liquid collection tube, and centrifuged at 6000 rcf for 1 min, and the supernatant was discarded;
5) the DNeasy Mini spin column was placed in a new 2 ml waste liquid collection tube, added with 500 μl of Buffer AW1 (Qiagen, DNeasy® Blood & Tissue Kit), and centrifuged at 6000 rcf for 1 min, and the supernatant was discarded;
6) the DNeasy Mini spin column was placed in a new 2 ml waste liquid collection tube, added with 500 μl of Buffer AW2, (Qiagen, DNeasy® Blood & Tissue Kit), and centrifuged at 20000 rcf for 3 min, and the supernatant was discarded;
7) the DNeasy Mini spin column was placed in anew 1.5 ml EP tube, 50 μl of Buffer AE (Qiagen, DNeasy® Blood & Tissue Kit) was pipetted and directly applied onto the membrane of the DNeasy Mini spin column, which was then left at room temperature for 5 min, and centrifuged at 6000 rcf for 1 min to elute the DNA from the membrane, the DNeasy Mini spin column was discarded, and the DNA sample was collected and stored at −20° C.
1) Standard curve: 1e^7-1e^4 IU/ml, the sample amount was 1 μl, a blank well was set so as to check whether the reaction system is polluted or not;
2) 1 μl of a DNA sample was added in sequence;
3) Addition of enzyme and reaction buffer: two tubes of the reaction solution were first added into the enzyme, mixed well and centrifuged slightly, placed on ice, added with the sample, followed by addition of 19 μl of the enzyme reaction solution, wherein, during the addition, the DNA sample should be sure of not being touched to cause contamination;
4) the sample was sealed with a sealing film and centrifuged;
Stage 2: 10 cycles • Step 1: 93° C., 45 s • Step 2: 55° C., 1 min Stage 3: 45 cycles • Step 1: 93° C., 30 s • Step 2: 55° C., 45 s
Detection: data were collected after completing the step 2 (55° C., 45 s) of the stage 3.
The experimental data were processed by using the Origin software and IC50 was calculated.
(In general: Real-time PCR tracks product formation cycle by cycle.)
For orientation: IC50 means the point on the concentration scale where inhibition reaches its midpoint. In the case of `O=c1c2ccccc2c(-c2ccc(NC3COC3)nc2F)nn1Cc1ccc(Cl)cc1` [Compound I-17], the midpoint of inhibition, the IC50, lay at 1600 nM.
Consider `CC(C)(C)Nc1ccc(-c2nn(Cc3ccc(Cl)cc3)c(=O)c3ccccc23)c(F)n1` [Compound I-14], for which the IC50 came out at 2100 nM.
Still for that read-out and setting: to `Cc1ccc2c(=O)n(Cc3ccc(Cl)cc3)nc(-c3ccc(C)nc3F)c2c1` [Compound V-3] belongs 1500 nM.
As for `Cc1ccc(-c2nn(Cc3ccc(Cl)cc3)c(=O)c3ccc(F)cc23)c(F)n1` [Compound V-1], the IC50 came out at 700 nM.
In turn, `COCc1ccc(-c2nn(Cc3ccc(C#N)cc3)c(=O)c3ccccc23)c(F)n1` [IV-22] yielded a 50% inhibitory concentration (IC50) of 3500 nM.
`N#Cc1ccc(Cn2nc(-c3cccnc3F)c3ccccc3c2=O)cc1` [IV-2] gave an IC50 of 1180 nM.
Still for that read-out and setting: to `Cc1ncc(-c2nn(Cc3ccc(Cl)cc3)c(=O)c3ccccc23)cn1` [II-4] belongs 7100 nM.
In turn, `Cc1ccc(-c2nn(Cc3ccc(Cl)cc3)c(=O)c3ccc(C(F)(F)F)cc23)c(F)n1` [Compound V-8] had an IC50 of 1100 nM.
Same read-out and setting: to `N#Cc1ccc(Cn2nc(-c3ccc(CO)nc3F)c3ccccc3c2=O)cc1` [IV-20] belongs 300 nM; to `CCOCCNc1ccc(-c2nn(Cc3ccc(C#N)cc3)c(=O)c3ccccc23)c(F)n1` [IV-41], 325 nM; to `CN(C)c1ccc(-c2nn(Cc3ccc(C#N)cc3)c(=O)c3ccccc23)c(F)n1` [IV-9], 1300 nM.
On the same count and under the same terms, to `Cc1ccc(-c2nn(Cc3ccc(C#N)cc3)c(=O)c3cc(F)c(F)cc23)c(F)n1` [Compound V-10] belongs 700 nM; to `CC(C)(C)OC(=O)COCCNc1nc(F)c(-c2nn(Cc3ccc(C#N)cc3)c(=O)c3ccccc23)cc1Cl` [IV-59], 780 nM; to `CCOCCOCCNc1nc(F)c(-c2nn(Cc3ccc(C#N)cc3)c(=O)c3ccccc23)cc1Cl` [IV-57], 87.8 nM.
Same read-out and setting: under `CC(C)(C)OC(=O)COCCNc1ccc(-c2nn(Cc3ccc(C#N)cc3)c(=O)c3ccccc23)c(F)n1` [IV-58] stands 5300 nM.
Molecule `CN(C)CCNc1ccc(-c2nn(Cc3ccc(C#N)cc3)c(=O)c3ccccc23)c(F)n1` [IV-14] gave a half-inhibitory concentration (IC50) of 1500 nM.
The same measure, in the same setting: under `[2H]C([2H])(NC)c1ccc(-c2nn(Cc3ccc(Cl)cc3)c(=O)c3ccccc23)c(F)n1` [Compound I-38] stands 800 nM.
Molecule `COCCCNc1ccc(-c2nn(Cc3ccc(C#N)cc3)c(=O)c3ccccc23)c(F)n1` [IV-32] returned a half-inhibitory concentration (IC50) of 191 nM.
For the molecule `CCOCCNc1nc(F)c(-c2nn(Cc3ccc(C#N)cc3)c(=O)c3ccccc23)cc1Cl` [IV-42], the IC50 turned out to be 292 nM.
Same read-out and setting: to `CN(C)CCNc1nc(F)c(-c2nn(Cc3ccc(C#N)cc3)c(=O)c3ccccc23)cc1Cl` [IV-38] belongs 343 nM.
